Source: patent US5908852A, “1,3,5 trisubstituted pyrazole compounds for treatment of inflammation” (G. D. Searle & Co., priority 1996, dated 1999)

How the values were obtained:
[1] = biological target: Human COX I (Homo sapiens, UniProt P23219); test: biochemical; conditions: recombinant enzyme, CHAPS-solubilized insect cell membranes; arachidonic acid 10 μM; pre-incubation 10-20 minutes; pH 8.0; read-out: Human COX I ID50
Protocol: (§1) Recombinant baculoviruses were isolated by transfecting 4 μg of baculovirus transfer vector DNA into SF9 insect cells ([…]) along with 200 ng of linearized baculovirus plasmid DNA by the calcium phosphate method. See M. D. Summers and G. E. Smith, A Manual of Methods for Baculovirus Vectors and Insect Cell Culture Procedures, Texas Agric. Exp. Station Bull. […] Recombinant viruses were purified by three rounds of plaque purification and high titer (10E7-10E8 pfu/ml) stocks of virus were prepared. For large scale production, SF9 insect cells were infected in 10 liter fermentors (0.5×10^6 /ml) with the recombinant baculovirus stock such that the multiplicity of infection was 0.1. After 72 hours the cells were centrifuged and the cell pellet homogenized in Tris/Sucrose (50 mM: 25%, pH 8.0) containing 1% 3-[(3-cholamidopropyl)dimethylammonio]-1-propanesulfonate (CHAPS). The homogenate was centrifuged at 10,000×G for 30 minutes, and the resultant supernatant was stored at -80° C. before being assayed for COX activity.
COX activity was assayed as PGE2 formed/μg protein/time using an ELISA to detect the prostaglandin released. CHAPS-solubilized insect cell membranes containing the appropriate COX enzyme were incubated in a potassium phosphate buffer (50 mM, pH 8.0) containing epinephrine, phenol, and heme with the addition of arachidonic acid (10 μM). Compounds were pre-incubated with the enzyme for 10-20 minutes prior to the addition of arachidonic acid. […] The PGE2 formed was measured by standard ELISA technology (Cayman Chemical).

[2] = biological target: T1, Human COX II (Homo sapiens, UniProt P35354); test: COX II activity in vitro (PGE2 formed, ELISA); type: biochemical; conditions: recombinant enzyme, CHAPS-solubilized insect cell membranes; arachidonic acid 10 μM; pre-incubation 10-20 minutes; pH 8.0; read-out: Human COX II ID50
T1 construct: A 2.0 kb fragment containing the coding region of either human or murine COX-I or human or murine COX-II was cloned; made in house; host or cells: SF9 insect cells infected with recombinant baculovirus (transfer vector pVL1393); CHAPS-solubilized preparation
T1 sequence (P35354 18-604): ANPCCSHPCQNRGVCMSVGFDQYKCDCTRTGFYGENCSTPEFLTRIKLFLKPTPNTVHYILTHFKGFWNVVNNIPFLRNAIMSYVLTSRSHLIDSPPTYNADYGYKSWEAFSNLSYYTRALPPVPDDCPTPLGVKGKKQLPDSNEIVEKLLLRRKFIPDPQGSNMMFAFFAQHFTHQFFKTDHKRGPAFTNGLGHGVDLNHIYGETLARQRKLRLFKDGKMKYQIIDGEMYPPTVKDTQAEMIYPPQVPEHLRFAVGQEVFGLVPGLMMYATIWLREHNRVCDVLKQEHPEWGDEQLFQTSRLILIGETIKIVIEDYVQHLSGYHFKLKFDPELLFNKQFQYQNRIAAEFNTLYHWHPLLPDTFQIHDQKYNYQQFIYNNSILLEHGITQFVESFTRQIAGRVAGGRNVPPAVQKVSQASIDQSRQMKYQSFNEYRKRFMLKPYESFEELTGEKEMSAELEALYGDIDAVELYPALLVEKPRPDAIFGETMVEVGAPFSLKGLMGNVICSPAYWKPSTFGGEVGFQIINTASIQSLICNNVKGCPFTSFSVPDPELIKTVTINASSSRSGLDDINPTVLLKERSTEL
Protocol: as §1
COX activity was assayed as PGE2 formed/μg protein/time using an ELISA to detect the prostaglandin released. […] The PGE2 formed was measured by standard ELISA technology (Cayman Chemical).

Human COX I, sequence (P23219 24-599): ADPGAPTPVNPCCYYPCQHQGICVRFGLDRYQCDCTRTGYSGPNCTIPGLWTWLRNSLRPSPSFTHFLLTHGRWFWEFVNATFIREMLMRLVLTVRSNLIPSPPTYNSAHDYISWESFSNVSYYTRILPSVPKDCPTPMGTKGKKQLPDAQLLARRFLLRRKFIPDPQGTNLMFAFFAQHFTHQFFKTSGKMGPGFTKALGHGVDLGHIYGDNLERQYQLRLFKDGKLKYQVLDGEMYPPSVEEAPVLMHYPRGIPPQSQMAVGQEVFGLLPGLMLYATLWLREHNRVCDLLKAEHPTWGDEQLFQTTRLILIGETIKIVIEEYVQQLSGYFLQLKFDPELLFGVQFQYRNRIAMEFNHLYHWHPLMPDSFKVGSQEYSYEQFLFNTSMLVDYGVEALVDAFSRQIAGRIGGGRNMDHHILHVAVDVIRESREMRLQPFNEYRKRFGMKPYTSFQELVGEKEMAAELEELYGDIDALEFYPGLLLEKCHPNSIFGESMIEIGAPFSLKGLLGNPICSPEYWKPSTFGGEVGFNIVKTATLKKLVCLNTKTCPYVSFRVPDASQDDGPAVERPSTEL

| Structure (SMILES) | IC50 [1] [µM] | IC50 [2] [µM] |
| --- | --- | --- |
| Cc1ccc(-c2cc(-c3ccc(C)cc3)n(-c3ccc(S(N)(=O)=O)cc3)n2)cc1 [Example 2a, 4-(3,5-bis(4-methylphenyl)-1H-pyrazol-1-yl)benzenesulfonamide] | 13.6 | – |
| COc1ccc(-c2cc(-c3ccc(OC)cc3)n(-c3ccc(S(N)(=O)=O)cc3)n2)cc1 [Example 2c, 4-(3,5-bis(4-methoxyphenyl)-1H-pyrazol-1-yl)benzenesulfonamide] | 2.1 | 0.5 |
| NS(=O)(=O)c1ccc(-n2nc(-c3ccccc3)cc2-c2ccc(Cl)cc2)cc1 [Example 2b, 4-(5-(4-chlorophenyl)-3-phenyl-1H-pyrazol-1-yl)benzenesulfonamide] | 19.1 | – |

The remaining lines, values ahead:

| IC50 [1] [µM] | IC50 [2] [µM] | Structure (SMILES) |
| --- | --- | --- |
| 12.7 | – | Cc1ccc(-c2cc(-c3ccc(Cl)cc3)n(-c3ccc(S(N)(=O)=O)cc3)n2)cc1 [Example 2d, 4-(5-(4-chlorophenyl)-3-(4-methylphenyl)-1H-pyrazol-1-yl)benzenesulfonamide] |
| > 100 | 0.7 | NS(=O)(=O)c1ccc(-n2nc(-c3ccc([N+](=O)[O-])cc3)cc2-c2ccc(Cl)cc2)cc1 [Example 2e, 4-(5-(4-chlorophenyl)-3-(4-nitrophenyl)-1H-pyrazol-1-yl)benzenesulfonamide] |
